How the values were obtained:
[1] = system: α1-GABAA receptor; assay: Ligand-binding assay, radiolabeled flumazenil competition, cerebellum membranes; details: rat cerebellum membranes, radiolabeled flumazenil 1 nM
Protocol: (§1) a) Ligand-binding Assays. Determination of the Affinity of Test Compounds for α1- and α2-GABAA Receptor
(§2) Male Sprague-Dawley rats weighing 200-250 g at the time of experiment were used. After decapitation of the animal, the cerebellum (tissue that mostly contains α1-GABAA receptor) and spinal cord (tissue that mostly contains α2-GABAA receptor) were removed. The membranes were prepared according to the method by J. Lameh et al. (Prog. Neuro-Psychopharmacol. Biol. Psychiatry, 24, 979-991, 2000) and H. Noguchi et al. (Eur J Pharm, 434, 21-28, 2002) with slight modifications. Once the tissues weighed, they were suspended in 50 mM Tris.HCl (pH 7.4), 1:40 (v/v), or sucrose 0.32 M in the case of spinal cord, homogenized and then centrifuged at 20000 g for 10 minutes at 7° C. The resulting pellet was resuspended under the same conditions and centrifuged again. The pellet was finally resuspended on a minimum volume and kept at −80° C. overnight. A slight modification was used in the case of spinal cord at the first centrifugation step. Centrifugation speed was at 1000 g and the supernatant was collected instead of discarded as in cerebellum. Then, supernatant was centrifuged at 20000 g and resuspended twice more under the same conditions described above for cerebellum. On the next day, the process was repeated until the final pellet was resuspended at a ratio of 1:10 (v/v) in the case of cerebellum and at a ratio of 1:5 (v/v) in the case of spinal cord.
(§3) Affinity was determined by competitive tests using radiolabeled flumazenil as ligand. The tests were performed according to the methods described by S. Arbilla et al. (Eur. J. Pharmacol., 130, 257-263, 1986); and Y. Wu et al. (Eur. J. Pharmacol., 278, 125-132, 1995) using 96-well microtiter plates. The membranes containing the study receptors, flumazenil (radiolabeling at a final concentration of 1 nM) and ascending concentrations of test compounds (in a total volume of 230 μl in 50 mM [pH 7.4] Tris.HCl buffer) were incubated. Simultaneously, the membranes were only incubated with the radiolabeled flumazenil (total binding, 100%) and in the presence of an elevated concentration of unradiolabeled flumazenil (non-specific binding, % estimation of radiolabeled ligand). The reactions started on adding the radiolabeled ligand followed by incubation for 60 minutes at 4° C. At the end of the incubation period, 200 μl of reaction were transferred to a multiscreen plate (Millipore) and filtered using a vacuum manifold and then washed three times with cold test buffer. The multiscreen plates were equipped with a GF/B filter that retained the membranes containing the receptors and the radiolabeled ligand which had been bound to the receptors. After washing, the plates were left till dry. Once dried, scintillation liquid was added and left under stirring overnight. The next day the plates were counted using a Perkin-Elmer Microbeta scintillation counter.
(§4) For analysis of the results the percentage of specific binding for every concentration of test compound was calculated as follows: specific binding−(X−N/T−N)×100 where, X: amount of bound ligand for every concentration of compound. T: total binding, maximum amount bound to the radiolabeled ligand. N: non-specific binding, amount of radiolabeled ligand bound in a non-specific way irrespective of the receptor used.
(§5) Every concentrations of compound were tested in triplicate and their mean values were used to determine the experimental values of % specific binding versus the concentration of compound. Affinity data are expressed as % inhibition at 10^−5M and 10^−7M concentrations.

[2] = system: α2-GABAA receptor; assay: Ligand-binding assay, radiolabeled flumazenil competition, spinal cord membranes; details: rat spinal cord membranes, radiolabeled flumazenil 1 nM
Protocol: as §1, §2, §3, §4, §5

[3] = system: male CD1 mice; assay: In vivo predictive sedation-hypnosis test (traveled distance); details: Mus musculus, ip, 0.5 h, traveled distance over 30 min versus control, read-out: % inhib motor activity; for inhibition in vivo at 0.98 µmol/kg: 0.98 μmol/kg intraperitoneal; for inhibition in vivo at 98 µmol/kg: 98.0 μmol/kg intraperitoneal
Protocol: b) In Vivo Determination of Predictive Sedative-hypnotic Action
The in vivo effects of these compounds were assessed by a predictive sedation-hypnosis test in mice (D. J. Sanger et al., Eur. J. Pharmacol., 313, 35-42, 1996; and G. Griebel et al., Psychopharmacology, 146, 205-213, 1999).
Groups of 5-8 male CD1 mice, weighing 22-26 g at the time of test, were used. […] Compounds were suspended in 0.25% agar with one drop of Tween in a volume of 10 mL/kg. Control animals were given the vehicle alone. Using a Smart System (Panlab, S. L., Spain) the traveled distance in cm is recorded for each mouse at 5-minutes intervals during a period of 30 minutes after dosing. The inhibition percentage of traveled distance of treated animals versus control animals (the first 5 minutes were discarded) was calculated.

CCCN(CCC)C(=O)Cc1c(-c2ccccc2)nc2ccc(OC)nn12 [Example 26, 2-(6-Methoxy-2-phenyl-imidazo[1,2-b]pyridazin-3-yl)-N,N-dipropyl-acetamide]
% inhib 10^−5 M, affinity for the α1-subunit of the GABAA receptor [1]: 100.0% | % inhib 10^−7 M, affinity for the α1-subunit of the GABAA receptor [1]: 73.5% | % inhib 10^−5 M, affinity for the α2-subunit of the GABAA receptor [2]: 84.5% | % inhib 10^−7 M, affinity for the α2-subunit of the GABAA receptor [2]: 27.4% | inhibition in vivo at 0.98 µmol/kg [3]: 19.2% | inhibition in vivo at 98 µmol/kg [3]: 91.5%

CCCN(CCC)C(=O)Cc1c(-c2ccccc2)nc2ccc(C)nn12 [Example 35, 2-(6-Methyl-2-phenyl-imidazo[1,2-b]pyridazin-3-yl)-N,N-dipropyl-acetamide]
% inhib 10^−5 M, affinity for the α1-subunit of the GABAA receptor [1]: 100.2% | % inhib 10^−7 M, affinity for the α1-subunit of the GABAA receptor [1]: 97.5% | % inhib 10^−5 M, affinity for the α2-subunit of the GABAA receptor [2]: 92.5% | % inhib 10^−7 M, affinity for the α2-subunit of the GABAA receptor [2]: 57.9% | inhibition in vivo at 0.98 µmol/kg [3]: 6.76% | inhibition in vivo at 98 µmol/kg [3]: 80.6%

CCCN(CCC)C(=O)Cc1c(-c2ccc(F)cc2)nc2ccc(OC)nn12 [Example 41, 2-[2-(4-Fluoro-phenyl)-6-methoxy-imidazo[1,2-b]pyridazin-3-yl]-N,N-dipropyl-acetamide]
% inhib 10^−5 M, affinity for the α1-subunit of the GABAA receptor [1]: 99.8% | % inhib 10^−7 M, affinity for the α1-subunit of the GABAA receptor [1]: 75.4% | % inhib 10^−5 M, affinity for the α2-subunit of the GABAA receptor [2]: 85.3% | % inhib 10^−7 M, affinity for the α2-subunit of the GABAA receptor [2]: 17.0% | inhibition in vivo at 0.98 µmol/kg [3]: 15.7% | inhibition in vivo at 98 µmol/kg [3]: 91.2%

CCCN(CCC)C(=O)Cc1c(-c2ccc(F)cc2)nc2ccc(OCC)nn12 [Example 43, 2-[6-Ethoxy-2-(4-fluoro-phenyl)-imidazo[1,2-b]pyridazin-3-yl]-N,N-dipropyl-acetamide]
% inhib 10^−5 M, affinity for the α1-subunit of the GABAA receptor [1]: 99.5% | % inhib 10^−7 M, affinity for the α1-subunit of the GABAA receptor [1]: 49.9% | % inhib 10^−5 M, affinity for the α2-subunit of the GABAA receptor [2]: 80.3% | % inhib 10^−7 M, affinity for the α2-subunit of the GABAA receptor [2]: 20.1% | inhibition in vivo at 98 µmol/kg [3]: 95.7%

Cc1ccc(-c2nc3ccc(C)nn3c2CC(=O)NC2CCCC2)cc1 [Example 91, N-Cyclopentyl-2-(6-methyl-2-p-tolyl-imidazo[1,2-b]pyridazin-3-yl)-acetamide]
% inhib 10^−5 M, affinity for the α1-subunit of the GABAA receptor [1]: 99.1% | % inhib 10^−7 M, affinity for the α1-subunit of the GABAA receptor [1]: 45.8% | inhibition in vivo at 98 µmol/kg [3]: 93%

Cc1ccc(-c2nc3ccc(C)nn3c2CC(=O)NC2CC2)cc1 [Example 93, N-Cyclopropyl-2-(6-methyl-2-p-tolyl-imidazo[1,2-b]pyridazin-3-yl)-acetamide]
% inhib 10^−5 M, affinity for the α1-subunit of the GABAA receptor [1]: 100.0% | % inhib 10^−7 M, affinity for the α1-subunit of the GABAA receptor [1]: 78.2% | inhibition in vivo at 98 µmol/kg [3]: 93.2%

Cc1ccc(-c2nc3ccc(C)nn3c2CC(=O)Nc2ccc3ccccc3n2)cc1 [Example 94, 2-(6-Methyl-2-p-tolyl-imidazo[1,2-b]pyridazin-3-yl)-N-quinolin-2-yl-acetamide]
% inhib 10^−5 M, affinity for the α1-subunit of the GABAA receptor [1]: 100.1% | % inhib 10^−7 M, affinity for the α1-subunit of the GABAA receptor [1]: 65.1% | inhibition in vivo at 98 µmol/kg [3]: 93.5%

Cc1ccc(-c2nc3ccc(C)nn3c2CC(=O)NN2CCOCC2)cc1 [Example 105, 2-(6-Methyl-2-p-tolyl-imidazo[1,2-b]pyridazin-3-yl)-N-morpholin-4-yl-acetamide]
% inhib 10^−5 M, affinity for the α1-subunit of the GABAA receptor [1]: 98.8% | % inhib 10^−7 M, affinity for the α1-subunit of the GABAA receptor [1]: 56.0% | inhibition in vivo at 98 µmol/kg [3]: 94%

Cc1ccc(-c2nc3ccc(C)nn3c2CC(=O)NN2CCCCC2)cc1 [Example 106, 2-(6-Methyl-2-p-tolyl-imidazo[1,2-b]pyridazin-3-yl)-N-piperidin-1-yl-acetamide]
% inhib 10^−5 M, affinity for the α1-subunit of the GABAA receptor [1]: 99.5% | % inhib 10^−7 M, affinity for the α1-subunit of the GABAA receptor [1]: 53.7% | inhibition in vivo at 98 µmol/kg [3]: 94%
